Measurements from US20110166112A1, “METHOD FOR STIMULATING PLATELET PRODUCTION” (Eisai, Inc., priority 2009, published 2011).

System: subjects with chronic idiopathic thrombocytopenic purpura (ITP)
Experiment: Phase 2 28-day study of E5501 tablets: safety and tolerability (TEAEs, discontinuations)
Format: in vivo, human
Settings: for Discontinued study, primary reason Adverse Event or SAE / Discontinued study, primary reason Platelet Count Increase to ≧500 K/mm^3: Pharmacokinetic Population; for Abdominal pain / Diarrhoea / Ecchymosis / Epistaxis / Fatigue / Headache / Migraine / Nausea / Pain in extremity / Petechiae / Platelet count increased / Upper respiratory tract infection / Vomiting: TEAE
Procedure: This was a phase 2, multi-center, double-blind, randomized, placebo-controlled, dose-ranging, parallel group study of E5501 tablets, used in the treatment of subjects with chronic idiopathic thrombocytopenic purpura (ITP) refractory to or relapsed after at least one prior ITP therapy. Subjects who met all entry criteria were randomly assigned in a 3:3:3:3:1 ratio to one of the following five treatment groups dosed daily for 28 days: 1) E5501 2.5 mg; 2) E5501 5 mg; 3) E5501 10 mg; 4) E5501 20 mg; or 5) placebo (PBO). Each E5501 dosing group consisted of 15 subjects while the PBO group consisted of 5 subjects. All study subjects were evaluated weekly (days 7, 14, 21 and 28) for safety and efficacy while receiving study treatment, with a final assessment for safety and effectiveness performed 4 weeks after the last study dose (day 56) unless the subject entered the follow-on study. Platelet counts were also measured on day 3 and day 5.
The safety and tolerability parameters included adverse events, clinical laboratory parameters, study drug exposure, vital electrocardiograms, concomitant medications, serum pregnancy tests for women of childbearing potential and physical examinations including height, weight, general appearance and recording of vital signs.
The populations of interest were defined as follows: • The randomized population included all subjects who were randomized into the study. • The safety population included all randomized subjects who receive at least one dose of study drug and have at least one safety assessment. • The pharmacokinetic (PK) population included all subjects who provided blood sample for analysis of E5501. A subject was included in this population if the subject had at least one blood draw for PK assessment. • The full analysis set (FAS) included all subjects who provided adequate data to derive at least one efficacy assessment. […] The day 28 visit window was defined to be from day 25, to last dose day+1, inclusively; • Other major protocol violations that impacted the platelet endpoint evaluation. Results from Planned Analyses
Subject Disposition. Sixty four subjects were randomly assigned to treatment in this study. All treated subjects provided adequate efficacy data and therefore were included in the FAS population. The number and percentage of subjects who completed treatment or discontinued prematurely were summarized by treatment groups as shown in Table 1. In addition, the number and percentage of subjects who withdrew were summarized by reason for discontinuation by treatment group. The majority (>85%) of subjects completed the study across all dose groups for the FAS, randomized, and safety populations. Seven subjects who discontinued the study early all were from E5501 dose groups: two subjects in each of 2.5, 10 and 20 mg dose groups and one subject in the 5 mg dose group.

For `O=C(Nc1nc(-c2cc(Cl)cs2)c(N2CCN(C3CCCCC3)CC2)s1)c1cnc(N2CCC(C(=O)O)CC2)c(Cl)c1` [E5501, 1-(3-chloro-5-{[4-(4-chlorothiophen-2-yl)-5-(4-cyclohexylpiperazin-1-yl)thiazol-2-yl]carbamoyl}pyridine-2-yl)piperidine-4-carboxylic acid], the “diarrhea, nausea and vomiting, total events” value was 12 events, the “subjects whose platelet count decreased to below that of baseline upon discontinuation of E5501” value was 3 subjects and the “subjects with diarrhea, nausea and vomiting events” value was 7 subjects. For the same compound, the “tolerability and safety profile” value was “well tolerated and had a favorable safety profile”, the Death (2.5 mg) was 0 n (%) and the “Serious TEAEs (Any Serious TEAE)” value (2.5 mg) was 2 (13.3) n (%). For the same compound, the “TEAE Leading to Study Treatment Dose Interruption” value (2.5 mg) was 0 n (%), the “TEAE Leading to Study Treatment Withdrawal” value (2.5 mg) was 0 n (%) and the TEAEs (2.5 mg) was 12 (80.0) n (%). The “Treatment-Related Serious TEAEs” value (2.5 mg) was 0 n (%), the “Treatment-Related TEAEs” value (2.5 mg) was 6 (40.0) n (%) and the “number of serious TEAEs” value (2.5 mg) was 2. For the same compound, the Death (5 mg) was 0 n (%), the “Serious TEAEs (Any Serious TEAE)” value (5 mg) was 0 n (%) and the “TEAE Leading to Study Treatment Dose Interruption” value (5 mg) was 1 (6.7) n (%). For the same compound, the “TEAE Leading to Study Treatment Withdrawal” value (5 mg) was 1 (6.7) n (%), the TEAEs (5 mg) was 13 (86.7) n (%) and the “Treatment-Related Serious TEAEs” value (5 mg) was 0 n (%). The “Treatment-Related TEAEs” value (5 mg) was 11 (73.3) n (%), the Death (10 mg) was 0 n (%) and the “Serious TEAEs (Any Serious TEAE)” value (10 mg) was 1 (7.1) n (%). The “TEAE Leading to Study Treatment Dose Interruption” value (10 mg) was 0 n (%), the “TEAE Leading to Study Treatment Withdrawal” value (10 mg) was 1 (7.1) n (%) and the TEAEs (10 mg) was 11 (78.6) n (%). The “Treatment-Related Serious TEAEs” value (10 mg) was 1 (7.1) n (%), the “Treatment-Related TEAEs” value (10 mg) was 8 (57.1) n (%) and the “number of serious TEAEs” value (10 mg) was 4. For the same compound, the Death (20 mg) was 0 n (%), the “Serious TEAEs (Any Serious TEAE)” value (20 mg) was 0 n (%) and the “TEAE Leading to Study Treatment Dose Interruption” value (20 mg) was 2 (13.3) n (%). For the same compound, the “TEAE Leading to Study Treatment Withdrawal” value (20 mg) was 2 (13.3) n (%), the TEAEs (20 mg) was 14 (93.3) n (%) and the “Treatment-Related Serious TEAEs” value (20 mg) was 0 n (%). For the same compound, the “Treatment-Related TEAEs” value (20 mg) was 10 (66.7) n (%), the “subjects who withdrew due to excessively increased platelet counts (≧500,000/mm^3)” value (20 mg) was 2 subjects and the “Discontinued study, primary reason Adverse Event or SAE” value (2.5 mg) was 0 n (%). The “Discontinued study, primary reason Platelet Count Increase to ≧500 K/mm^3” value (2.5 mg) was 0 n (%), the “Discontinued study, primary reason Adverse Event or SAE” value (5 mg) was 1 (6.7) n (%) and the “Discontinued study, primary reason Platelet Count Increase to ≧500 K/mm^3” value (5 mg) was 0 n (%). The “Discontinued study, primary reason Adverse Event or SAE” value (10 mg) was 1 (7.1) n (%), the “Discontinued study, primary reason Platelet Count Increase to ≧500 K/mm^3” value (10 mg) was 0 n (%) and the “Discontinued study, primary reason Adverse Event or SAE” value (20 mg) was 0 n (%). The “Discontinued study, primary reason Platelet Count Increase to ≧500 K/mm^3” value (20 mg) was 2 (13.3) n (%), the “Discontinued study, primary reason Adverse Event or SAE” value (Total E5501) was 2 (3.4) n (%) and the “Discontinued study, primary reason Platelet Count Increase to ≧500 K/mm^3” value (Total E5501) was 2 (3.4) n (%). The Abdominal pain (2.5 mg) was 0 n (%), the Diarrhoea (2.5 mg) was 1 (6.7) n (%) and the Ecchymosis (2.5 mg) was 0 n (%). The Epistaxis (2.5 mg) was 4 (26.7) n (%), the Fatigue (2.5 mg) was 2 (13.3) n (%) and the Headache (2.5 mg) was 4 (26.7) n (%). The Migraine (2.5 mg) was 0 n (%), the Nausea (2.5 mg) was 0 n (%) and the Pain in extremity (2.5 mg) was 0 n (%). The Petechiae (2.5 mg) was 0 n (%), the Platelet count increased (2.5 mg) was 0 n (%) and the “Upper respiratory tract infection” value (2.5 mg) was 1 (6.7) n (%). The Vomiting (2.5 mg) was 1 (6.7) n (%), the Abdominal pain (5 mg) was 2 (13.3) n (%) and the Diarrhoea (5 mg) was 2 (13.3) n (%). For the same compound, the Ecchymosis (5 mg) was 0 n (%), the Epistaxis (5 mg) was 2 (13.3) n (%) and the Fatigue (5 mg) was 4 (26.7) n (%). For the same compound, the Headache (5 mg) was 3 (20.0) n (%), the Migraine (5 mg) was 0 n (%) and the Nausea (5 mg) was 0 n (%). For the same compound, the Pain in extremity (5 mg) was 2 (13.3) n (%), the Petechiae (5 mg) was 0 n (%) and the Platelet count increased (5 mg) was 0 n (%). The “Upper respiratory tract infection” value (5 mg) was 0 n (%), the Vomiting (5 mg) was 0 n (%) and the Abdominal pain (10 mg) was 0 n (%). The Diarrhoea (10 mg) was 0 n (%), the Ecchymosis (10 mg) was 3 (21.4) n (%) and the Epistaxis (10 mg) was 1 (7.1) n (%). The Fatigue (10 mg) was 4 (28.6) n (%), the Headache (10 mg) was 1 (7.1) n (%) and the Migraine (10 mg) was 0 n (%). For the same compound, the Nausea (10 mg) was 2 (14.3) n (%), the Pain in extremity (10 mg) was 0 n (%) and the Petechiae (10 mg) was 0 n (%). For the same compound, the Platelet count increased (10 mg) was 0 n (%), the “Upper respiratory tract infection” value (10 mg) was 2 (14.3) n (%) and the Vomiting (10 mg) was 1 (7.1) n (%). For the same compound, the Abdominal pain (20 mg) was 0 n (%), the Diarrhoea (20 mg) was 2 (13.3) n (%) and the Ecchymosis (20 mg) was 0 n (%). For the same compound, the Epistaxis (20 mg) was 2 (13.3) n (%), the Fatigue (20 mg) was 2 (13.3) n (%) and the Headache (20 mg) was 4 (26.7) n (%). For the same compound, the Migraine (20 mg) was 2 (13.3) n (%), the Nausea (20 mg) was 1 (6.7) n (%) and the Pain in extremity (20 mg) was 1 (6.7) n (%). The Petechiae (20 mg) was 2 (13.3) n (%), the Platelet count increased (20 mg) was 4 (26.7) n (%) and the “Upper respiratory tract infection” value (20 mg) was 0 n (%). For the same compound, the Vomiting (20 mg) was 2 (13.3) n (%) and the Abdominal pain (Total E5501) was 2 (3.4) n (%).
